According to article PMC11195995, “A homogeneous time-resolved fluorescence screen to identify SIRT2 deacetylase and defatty-acylase inhibitors” (PLOS ONE, 2024):
“Also recorded” adds a separate entry of the source. Read-outs that look alike come from different tables or passages of the source. Primed or numbered codes have the meaning given here. Ends that are not written are not given here. * marks the point of attachment. Myristoyl = CCCCCCCCCCCCCC(=O)*; PEG4′ = PEG4 linker; FAM = fluorescein

Experiments:
[1] = target: T1, SIRT2 (Homo sapiens, UniProt Q8IXJ6); test: SIRT2 demyristoylase activity assay (MALDI-MS, myristoyl-H4K16 peptide); assay type: biochemical; settings: for Demyristoylase IC50: 0.5 μM myristoyl-H4K16, 1 mM NAD+, 37°C, absolute IC50, "no effect" = 200 μM compound did not significantly affect SIRT2 activity
T1 sequence (Q8IXJ6 34-356): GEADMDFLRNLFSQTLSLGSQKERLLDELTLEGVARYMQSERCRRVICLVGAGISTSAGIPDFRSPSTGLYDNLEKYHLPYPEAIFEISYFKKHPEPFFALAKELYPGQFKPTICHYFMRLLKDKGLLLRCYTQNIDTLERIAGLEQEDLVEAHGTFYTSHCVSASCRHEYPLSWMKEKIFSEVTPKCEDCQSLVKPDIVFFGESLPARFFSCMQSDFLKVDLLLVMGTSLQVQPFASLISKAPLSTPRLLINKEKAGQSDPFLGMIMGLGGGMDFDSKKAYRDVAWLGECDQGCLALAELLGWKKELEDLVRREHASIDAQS
Description: (§1) The enzymatic activity of SIRT2 was measured using a MALDI-MS—based protocol reported previously. Reactions were performed at 37°C for 2.5 min in PBS containing 1 mM DTT and 1 mM of NAD^+. Acylated H4K16 peptides were used as the substrates at the following concentrations: acetyl-H4K16, 4 μM; decanoyl-H4K16, 0.2 μM; dodecanoyl-H4K16, 0.5 μM; myristoyl-H4K16, 0.5 μM. These concentrations correspond to the enzyme’s Km for each substrate under saturating NAD^+ conditions. The enzyme concentration in each reaction was chosen such that 20% or less of the substrate was processed by the enzyme when the reactions were quenched. In dose-response assays showing a reduction in SIRT2 activity by increasing amounts of ligand, the data was fit with standard sigmoidal dose-response curves as we previously described. We report absolute IC50 values from the curves which reflect ligand concentrations that reduce the activity of the enzyme by 50% compared to control (no ligand) samples. Assays measuring the effects of ligand on SIRT1 deacetylase and SIRT6 demyristoylase activities were performed similarly, as previously described.

[2] = target: T1, SIRT2; test: SIRT2 deacetylase activity assay (MALDI-MS, acetyl-H4K16 peptide); assay type: biochemical; settings: for Deacetylase IC50: 4 μM acetyl-H4K16, 1 mM NAD+, 37°C, absolute IC50, "no effect" = 200 μM compound did not significantly affect SIRT2 activity
Description: as §1

[3] = target: T1, SIRT2; test: SIRT2 binding competition assay using Cy3-myristoyl-H4K16 peptide; settings: concentrations as high as 100 μM
Description: Competition assays where Cy3-myristoyl-H4K16 peptide was displaced from SIRT2 by 1 were performed as previously described. Assays were performed in PBS with 1 mM DTT at 23°C in a quartz microcuvette (160 μl assay volume). Briefly, the fluorescence intensity of 50 nM Cy3-myristoyl-H4K16 peptide was measured in the presence of 2.5 μM SIRT2 and increasing amounts of 1 using excitation/emission wavelengths of 535 nm/560 nm. The final DMSO concentration in each measurement was 0.6%. As previously described, displacement of Cy3-myristoyl-H4K16 peptide from SIRT2 by a competitive ligand results in a reduction of its fluorescence.
The data from both competition assays show a reduction in probe fluorescence at increasing concentrations of competitor ligands. […] We determined and report absolute IC50 values from the curves which reflect ligand concentrations that reduce the fluorescence by 50% compared to control (no ligand) samples.

[4] = target: T1, SIRT2; test: 1-aminoanthracene binding competition assay, SIRT2 alone
Description: Competition assays where 1-aminoanthracene was displaced from SIRT2 by 2, 4, 5, and 6 were performed as previously reported where we described its displacement from SIRT2 by 3. The assays were also cuvette-based and performed at 23°C in PBS with 1 mM DTT, and the final DMSO concentration was 0.6%. Briefly, the fluorescence intensity of 100 nM 1-aminoanthracene was measured in the presence of 4 μM SIRT2 and increasing amounts of ligand using excitation/emission wavelengths of 390 nm/520 nm. As previously described, displacement of 1-aminoanthracene from SIRT2 by a competitor results in a reduction of its fluorescence.
We determined and report absolute IC50 values from the curves which reflect ligand concentrations that reduce the fluorescence by 50% compared to control (no ligand) samples.

[5] = target: T1, SIRT2; settings: read-out: IC50 for SIRT2 demyristoylase activity; cited from earlier work
[6] = target: T2, human SIRT2 catalytic domain (6xHis-SUMO-SIRT2) (Homo sapiens, UniProt Q8IXJ6)
T2 sequence (Q8IXJ6 34-356): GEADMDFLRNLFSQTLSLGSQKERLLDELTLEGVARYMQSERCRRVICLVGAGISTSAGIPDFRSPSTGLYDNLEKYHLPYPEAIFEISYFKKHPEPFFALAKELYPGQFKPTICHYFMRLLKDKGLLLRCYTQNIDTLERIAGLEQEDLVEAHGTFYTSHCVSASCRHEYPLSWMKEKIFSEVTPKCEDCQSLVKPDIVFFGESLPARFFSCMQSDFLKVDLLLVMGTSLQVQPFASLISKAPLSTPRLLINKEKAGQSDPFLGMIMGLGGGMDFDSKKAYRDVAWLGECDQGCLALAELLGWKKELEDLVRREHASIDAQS

[7] = target: T1, SIRT2; settings: cited from earlier work
[8] = target: SIRT2—decanoyl peptide complex; parameters: method as in PMID 32941003; settings: cited from earlier work
[9] = target: T2, human SIRT2 catalytic domain (6xHis-SUMO-SIRT2); test: SIRT2—myristoyl-peptide HTRF binding assay (displacement of FAM-myristoyl-H4K16 peptide); settings: at the highest ligand concentrations
[10] = target: T2, human SIRT2 catalytic domain (6xHis-SUMO-SIRT2); test: biochemical
[11] = tested on: acetylated alpha-tubulin in A549 cells; test: Immunofluorescence staining of acetylated alpha-tubulin in A549 cells; assay type: cell-based, human; settings: 25 μM, 6 hours
Description: 100,000 A549 or A549 SIRT2-KO cells were seeded on a coverslip that was placed in the well of 6-well plate, and the cells were grown overnight in full DMEM. […] The cells were then washed three times with PBS, fixed with 4% paraformaldehyde for 10 min, then washed again three times with PBS. Cells were incubated with 0.2% Triton X-100 for 15 minutes on a shaker followed by three more PBS washes. The cells were then blocked with 2% BSA in PBS for 1 hour at room temperature. […] Slides were imaged using a Keyence BZ-X710 fluorescence microscope with the following filter settings: DAPI, excitation/emission was 300–400 nm/438-484 nm; Alexa Fluor 488, excitation/emission was 448 nm/500-550 nm. All images were obtained under identical conditions, and fluorescence intensities were quantified using Fiji/ImageJ without any manipulation to the images. The fluorescence intensity from at least six cells per coverslip were randomly selected and measured targeting the cytosol (for measuring acetylated alpha-tubulin levels via Alexa Fluor 488) or the nucleus (for measuring nuclear DNA staining via DAPI). Relative fluorescence intensity was calculated as the ratio of Alexa Fluor 488/DAPI intensities. […]

[12] = tested on: A549 cells; test: Cell viability MTT assay; assay type: cell-based, human; settings: 72 hours treatment, concentrations shown in Fig 4F and 4G
Description: 5,000 A549 cells were seeded in a 96-well plate in full DMEM. The total volume in each well was 150 μl, and the DMSO concentration was 0.7%. After this treatment period, 10 μl of MTT reagent was added to each well, then the cells were cultured for 4 hour before adding 100 μl of crystal dissolving solution for another 16 hour incubation (Cayman Chemical, catalog #10009365). The absorbance in each well was measured at 570 nm and was used to determine the cell viability by comparing the absorbance of drug treated cells to control (DMSO treated) cells.

[13] = tested on: acetylated alpha-tubulin in A549 SIRT2-KO cells; test: Immunofluorescence staining of acetylated alpha-tubulin in A549 SIRT2-KO cells; assay type: cell-based, human; settings: 25 μM, 6 hours
[14] = target: T3, SIRT2 catalytic domain (human, amino acids 34-356), 6xHis-SUMO tag removed (human, UniProt Q8IXJ6 34-356); test: ITC; PBS, 25°C; 20 uM SIRT2 in the cell, 200 uM peptide in the syringe; one site binding model; settings: both partners purified
T3 construct: human SIRT2 catalytic domain, amino acids 34-356; also called sirtuin-2; source: tag removed, chromatographically purified; not shown: His6, N-terminal, cleaved; SUMO, N-terminal, cleaved
T3 sequence (looked up): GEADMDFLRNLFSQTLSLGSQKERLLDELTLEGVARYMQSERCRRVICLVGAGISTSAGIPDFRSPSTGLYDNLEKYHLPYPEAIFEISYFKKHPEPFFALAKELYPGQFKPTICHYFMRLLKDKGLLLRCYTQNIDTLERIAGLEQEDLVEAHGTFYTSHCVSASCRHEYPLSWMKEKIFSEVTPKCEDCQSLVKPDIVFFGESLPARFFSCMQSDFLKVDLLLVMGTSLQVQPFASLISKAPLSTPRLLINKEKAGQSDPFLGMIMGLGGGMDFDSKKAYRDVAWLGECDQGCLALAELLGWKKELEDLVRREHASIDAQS

[15] = target: T4, 6xHis-SUMO-SIRT2 (human SIRT2 catalytic domain, amino acids 34-356, with N-terminal 6xHis-SUMO tag) (human, UniProt Q8IXJ6 34-356); test: AlphaScreen or HTRF; competition; 3 nM SIRT2, 0.2 nM terbium cryptate-labeled antibody, 3 nM FAM-myristoyl-H4K16 peptide, 10 ul/well; unlabeled myristoyl-H4K16 peptide as competitor; settings: both partners purified
T4 construct: human SIRT2 catalytic domain, amino acids 34-356; Used in the HTRF assays; held near the FRET donor by a terbium cryptate-labeled anti-6xHis antibody (a tool); also called His tagged-SIRT2; sirtuin-2; not shown: His6, N-terminal, kept; SUMO, N-terminal, kept
T4 sequence (looked up): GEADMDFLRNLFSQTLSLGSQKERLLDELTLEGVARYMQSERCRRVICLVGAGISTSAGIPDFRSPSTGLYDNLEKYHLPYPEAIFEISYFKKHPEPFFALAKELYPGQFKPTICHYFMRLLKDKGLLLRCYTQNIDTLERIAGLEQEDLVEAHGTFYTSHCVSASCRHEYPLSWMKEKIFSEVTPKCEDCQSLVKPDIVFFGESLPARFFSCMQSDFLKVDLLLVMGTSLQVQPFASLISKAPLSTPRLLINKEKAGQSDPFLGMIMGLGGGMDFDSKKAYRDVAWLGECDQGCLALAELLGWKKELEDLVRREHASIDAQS

[16] = target: T4, 6xHis-SUMO-SIRT2 (human SIRT2 catalytic …); test: AlphaScreen or HTRF; direct binding; 6xHis-SUMO-SIRT2 and FAM-myristoyl-H4K16 peptide 0-10 nM each, 0.2 nM anti-6xHis terbium cryptate-labeled antibody as FRET donor; 384-well plates, room temperature, 10 mM Hepes-NaOH pH 7.4, 150 mM NaCl, 5 mM DTT, 0.005% Tween-20; apparent Kd; settings: both partners purified

Oc1c(F)cc(Br)cc1F [compound 12, 4-bromo-2,6-difluorophenol]
Demyristoylase IC50 [1]: no effect | Deacetylase IC50 [2]: no effect

FC(F)(F)C1(c2ccccc2)N=N1 [compound 8, 3-phenyl-3-(trifluoromethyl)-3H-diazirine]
Demyristoylase IC50 [1]: no effect | IC50 [2]: 114 µM

O=C1CSc2nc3ccccc3n21 [compound 15, [1, 3]thiazolo[3,2-a]benzimidazole-3(2H)-one]
IC50 [1]: 117 µM | displacement of Cy3-myristoyl-H4K16 peptide from SIRT2 / interaction with SIRT2 [3]: too weak to measure a Kd; also recorded: did not efficiently displace | displacement of 1-aminoanthracene from SIRT2 ([4]; concentrations as high as 100 μM): did not efficiently displace | Deacetylase IC50 [2]: not effective; also recorded: no effect

Oc1cc(C(F)(F)F)ccc1F [compound 14, 2-fluoro-5-(trifluoromethyl)phenol]
Demyristoylase IC50 [1]: no effect | Deacetylase IC50 [2]: no effect

Oc1c(I)cc(Br)cc1I [compound 10, 4-bromo-2,6-diiodophenol]
Demyristoylase IC50 [1]: no effect | Deacetylase IC50 [2]: no effect

Cc1ccc(C(=O)Nc2ccc(S(=O)(=O)O)c3cc(S(=O)(=O)O)cc(S(=O)(=O)O)c23)cc1NC(=O)c1cccc(NC(=O)Nc2cccc(C(=O)Nc3cc(C(=O)Nc4ccc(S(=O)(=O)O)c5cc(S(=O)(=O)O)cc(S(=O)(=O)O)c45)ccc3C)c2)c1 [suramin]
IC50 [5]: 95 µM

COc1ccc(NC(=O)c2ccc3c(SCC(=O)O)c4c(nc3c2)CCCC4)c(OC)c1 [C598-0017]
IC50 [6]: 6.34 µM

Nc1cccc2cc3ccccc3cc12 [1-aminoanthracene]
Kd ([7]; read-out: Kd for SIRT2 alone): 37 µM | Kd [8]: 4 µM | IC50 [5]: 21 µM

Cc1ccc(C(C)C)c(O)c1 [compound 4, 2-isopropyl-5-methylphenol]
IC50 [4]: 128 µM | Kd [4]: 116 µM

CCCCCCCCCCCCCCCC(=O)OC[C@H](O)[C@H]1OC(=O)C(O)=C1O [ascorbyl palmitate]
Kd ([7]; read-out: published Kd for SIRT2): 3 to 5 µM | maximum reduction of HTRF FRET signal (displacement of FAM-myristoyl-H4K16 peptide) [9]: ~ 40% | IC50 [5]: 8 to 23 µM | IC50 [10]: 2 µM

Oc1c(F)cc(Br)cc1I [compound 9, 4-bromo-2-fluoro-6-iodophenol]
Demyristoylase IC50 [1]: no effect | Deacetylase IC50 [2]: no effect

CCCCCc1ccc(C)cc1O [compound 6, 5-methyl-2-pentylphenol]
IC50 ([4]; SIRT2 only, 100 nM 1-aminoanthracene, 4 μM SIRT2): 81 µM | Kd ([4]; read-out: SIRT2 Kd): 73 µM

CCCCOc1cc(F)c(O)c(F)c1 [compound 13, 4-butoxy-2,6-difluorophenol]
Demyristoylase IC50 [1]: no effect | Deacetylase IC50 [2]: no effect

Oc1ccc(Br)cc1C(F)(F)F [compound 11, 4-bromo-2-(trifluoromethyl)phenol]
Demyristoylase IC50 [1]: no effect | Deacetylase IC50 [2]: no effect

Cc1cc(C)nc(SCC(=O)Nc2ncc(Cc3cccc4ccccc34)s2)n1 [SirReal2, reference compound]
level of acetylated alpha-tubulin (immunofluorescence) [11]: increased acetylated alpha-tubulin to similar levels as 1; also recorded: enhanced fluorescence | viability / toxicity in A549 cells (MTT) [12]: did not cause toxicity; also recorded: no effect | level of acetylated alpha-tubulin (immunofluorescence) [13]: no effect

KGLGKGGAK(Myristoyl)RHRK
Kd [14]: 0.013 µM | IC50 [15]: 0.002 µM

{FAM-PEG4′}-KGLGKGGAK(Myristoyl)RHRK
Kd [16]: ~0.001 µM
